# Tests used:
# [1] = tested on: melanoma cell lines VMM1, DM13, DM93 and DM122; test: Intracellular staining of chemokines CCL2-5, CXCL9, CXCL12 by flow cytometry after overnight TLR agonist stimulation with or without IFNγ; assay type: cell-based, human; settings: TLR agonist alone
# Description: (§1) Stained cells were collected on the FACSCalibur instrument (BD Biosciences) and analyzed with FlowJo 8.8.6 software (TreeStar, Ashland, Oreg.). Analyses were conducted on live cells (95%) as defined by forward and side-angle scatter. Gates were set based on isotype-matched (ISO) controls or fluorescence-minus-one (FMO) controls.
# (§2) These were used with or without rh-IFNγ (1000 IU/mL; PeproTech). After stimulation, cells were detached using Accutase.
# (§3) Cells were fixed and permeablilized using the BD Cytofix/Cytoperm kit and then stained with the indicated antibodies. Staining antibodies: CCL2-PE, CCL3-PE, CCL4-PE, CCL5-PE, CXCL10-PE (BD Pharmingen), CXCL9-PE, CXCL12-APC (R&D Systems), IgG1-PE, and IgG2α-PE (Caltag). Flow cytometric analyses were conducted as described.
# [2] = tested on: DM13 cells; test: TLR agonist dose response assay, CXCL10 producing cells by flow cytometry, constant IFNγ; assay type: cell-based, human; settings: for effect on CXCL10 induction: in the presence of IFNγ, even at much higher concentrations than in prior experiments; for optimal concentration for CXCL10 production: constant concentration of IFNγ
# Description: FIGS. 3A-3D. […] Melanoma cells were analyzed for induced chemokine production after overnight stimulation with the indicated TLR agonists with (+) or without (−) IFNγ. FIG. 3A-FIG. 3B (12 panels/images each). […] Scale bars represent 100 μm. FIG. 3C. Graphic illustration of ELISA assays to detect CXCL10 from supernatants of stimulated melanoma cells DM13 (left) and VMM1 (right). FIG. 3D. TLR agonist dose response assay. […] Data are from 2 independent experiments.
# as §2, §3
# [3] = tested on: lung cancer cell lines; test: CXCL10 production by lung cancer cell lines, flow cytometry; assay type: cell-based, human; settings: lung cancer cell lines n=8 (FIG. 16)
# Description: FIG. 16 (line graph): Treatment of Lung Cancer cells with TLR1/2 agonists-TLR1/2 agonists can induce some CXCL10 production from lung cancer cell lines. Lung cancer cells were stimulated with TLR agonists overnight alone or in combination with IFNγ (IFNγ stimulation indicated as +). CXCL10 production was assessed by flow cytometry from the indicated lung cancer cell lines (n=8).
# [4] = tested on: breast cancer cell lines; test: CXCL10 production by breast cancer cell lines, flow cytometry; assay type: cell-based, human; settings: n=4; printed 'LPS, PAM3CSK4, and MALP-2+IFNγ', +IFNγ may apply to all three
# Description: Breast cancer cells were stimulated with TLR agonists overnight alone or in combination with IFNγ (IFNγ stimulation indicated as +). CXCL10 production was assessed by flow cytometry from the indicated breast cancer cell lines (n=4).
# [5] = tested on: melanoma cell lines VMM1, DM13, DM93 & VMM39; test: Gene expression profiling (gene array) of melanoma cell lines after IFNγ or TLR2/6 agonist + IFNγ; assay type: cell-based, human; settings: Vs No treatment; Anova p≤0.005, matched comparisons
# Description: To assess global effects of TLR2/6 agonists and IFNγ stimulation on melanoma, gene expression profiling of melanoma cell lines was performed.
# [6] = tested on: melanoma cell lines VMM1, DM13, DM93 and DM122; test: Intracellular CXCL10 staining by flow cytometry after overnight stimulation with TLR agonists with or without IFNγ; assay type: cell-based, human; settings: averaged across the four melanoma lines, flow cytometry (FIG. 2B)
# Description: as §1, §2, §3
# [7] = tested on: cells from freshly resected human melanoma metastases; test: CXCL10 production by cells of freshly resected melanoma metastases, flow cytometry; assay type: cell-based; settings: patients 1-3 (FIG. 6A)
# Excerpt: FIGS. 6A-6E. Patient melanomas generate CXCL10 in response to TLR2/6 agonist and IFNγ. […] Cell subsets were defined as: melanoma (CD45^negS100^+), endothelial (S100^negCD45^negCD105^+), B-cell (CD20^+), DC (CD11c^+HLADR^+), macrophage (CD14^+), NK-cell (CD56^+) and T-cell (CD3^+). FIG. 6A. The percent of melanoma cells that are CXCL10^+ from patient 1 (top), patient 2 (middle) and patient 3 (bottom) tumors after stimulation with the indicated conditions (left panel). MFI for CXCL10 expression of melanoma cells from patient 1 melanoma (top) and patient 2 melanoma (middle) patient 3 melanoma (bottom) (right panel). FIG. 6B-FIG. 6D. […] Graph of CXCL10 measured by ELISA assay, cells are from patient 1 tumor.
# Having observed production of CCL3 and CXCL10 by cultured human melanoma cell lines in vitro, we asked whether the same would be observed with melanoma cells isolated from fresh surgically-excised human metastases. TLR2 and TLR6 are expressed on some immune cell subsets (31; 32), thus we also assessed whether TLR2/6 agonists and IFNγ may impact CXCL10 production from immune cell subsets in patient tumor specimens. […] The percentage of live cells from tumor assessed by viability marker were approximately 60%, 50%, 70%, and 40% for patients 1-4 respectively (data not shown).
# [8] = tested on: 21 melanoma cell lines; test: TLR2 and TLR6 staining by flow cytometry with or without IFNγ; assay type: cell-based, human; settings: IFNγ stimulation, data not shown
# Description: Melanoma cell lines were seeded into 6-well plates at 1×10^6 cells/well in RPMI and stimulated overnight in the presence or absence of recombinant human IFNγ (rh-IFNγ, 1000 IU/mL; PeproTech, Rocky Hill, N.J.). After stimulation, cells were detached using Accutase (Millipore, Billerica, Mass.), stained with indicated antibodies and fixed using Cytofix (BD Biosciences, San Jose, Calif.). Surface staining antibodies: TLR2-Alexa647, Streptavidin-PE (BD Pharmigen, San Jose, Calif.), TLR6-Biotin (eBioscience, San Diego, Calif.), TLR4-APC (R&D Systems, Minneapolis, Minn.). Intracellular staining: cells were fixed and permeabilized using the BD Cytofix/Cytoperm kit (BD Biosciences) and stained with appropriate antibodies: TLR7-CFS, IgG2α-CFS (R&D Systems), TLR3-PE, TLR9-APC (eBioscience), TLR8-Alexa488 (Dendritics, San Diego, Calif.), IgG1-PE, and IgG2α-PE (Caltag, Towcester, UK).
# as §1
# [9] = tested on: cells from fresh surgically isolated melanoma metastases; test: CXCL10 ELISA of supernatants of stimulated cells from fresh melanoma metastases; assay type: cell-based, human; settings: patient 1 tumor (FIG. 6E)
# Description: Melanoma cell lines or cells from patient samples were stimulated with TLR agonists as described, but without GolgiStop. Media containing the cell-secreted chemokines were collected and centrifuged to remove cell debris. CXCL10 was measured using the BD OptEIA human IP-10 ELISA Set with BD OptEIA buffers (BD Biosciences).
molecule,measurement,setting,value
poly-ICLC,chemokine production,[1],little chemokine production
same,effect on CXCL10 induction,[2],little effect
Pam3CysSerLys4 [Pam3CSK4],CXCL10 production,[3],some CXCL10 production can be induced
same,cell lines with induced CXCL10 production,[4],2/4
lipopolysaccharide [LPS],chemokine production,[1],little chemokine production
same,concentration inducing CXCL10 at levels comparable to MALP-2 or FSL-1 and IFNγ,[2]; +IFNγ (FIG. 3D),100 µg/mL
same,concentration inducing comparable levels of CXCL10,"[2]; in combination with IFNγ, compared with TLR2/6 agonists",≥ 100 µg
same,cell lines with induced CXCL10 production,[4],2/4
CC(C)Cn1cnc2c(N)nc3ccccc3c21 [imiquimod],chemokine production,[1],little chemokine production
same,effect on CXCL10 induction,[2],little effect
fibroblast-stimulating lipopeptide-1 [FSL-1],chemokine production,[1],little chemokine production
same,optimal concentration for CXCL10 production,[2],5 µg/mL
"interferon gamma [IFNγ, recombinant human IFNγ (PeproTech), used at 1000 IU/mL]","fold change of gene induction, CXCL9",[5],20.7 fold change
same,"fold change of gene induction, CXCL10",[5],36.5 fold change
same,"fold change of gene induction, GBP1",[5],50.6 fold change
same,"fold change of gene induction, GBP4",[5],84.9 fold change
same,"fold change of gene induction, IFI30",[5],14.4 fold change
same,"fold change of gene induction, IFITM1",[5],14.4 fold change
same,"fold change of gene induction, IRF1",[5],30.2 fold change
same,"fold change of gene induction, OAS2",[5],24.1 fold change
same,"fold change of gene induction, TNFSF10",[5],25.7 fold change
same,"fold change of gene induction, XAF1",[5],22.8 fold change
same,percent of cells producing CXCL10,[6],7%
same,"CXCL10 production by melanoma cells (S100+CD45neg), percentage of CXCL10+ cells and MFI",[7],produced CXCL10
same,expression of TLR2 or TLR6,[8],neither was impacted
same,CXCL10 in supernatants,[9],~400 pg/mL
macrophage-activating lipopeptide 2 [MALP-2],chemokine production,[1],little chemokine production
same,optimal concentration for CXCL10 production,[2],0.1 µg/mL
